Assay results taken from patent publication US9023806B2, “Peptide capable of altering tubulin polymerization and use thereof for inhibiting cell proliferation” (Universite d'Angers, priority 2004, dated 2015).
“Also recorded” adds a separate entry of the source.

Tests used:
[1] = tested on: tubulin; assay: Peptide-on-membrane chip blot overlay with purified tubulin; type: binding, mice; details: purified tubulin overnight at 4° C., anti-βIII tubulin antibody
Excerpt: Peptide chips corresponding to the NFL, NFM and NFH neurofilament subunits were obtained according to Frank et al., 1992, with an ASP 222 automat spot robot. Each neurofilament sequence was divided into sequences of 15 amino acids.
These peptides overlap 12 amino acids of the next peptide. The overlapping peptides were synthesized on spots, like a chip, on a specially produced cellulose membrane (AIMS scientific product, GmbH, Braunschweig, Germany). The peptides are bound to the membrane with a polyethylene glycol bridge owing to their carboxy-terminal amino acid. The synthetic procedure followed is that of Frank et al., 1996.
Alternatively, the strips that were detected were cut out and analyzed by mass spectrometry. The peptide-on-membrane chip was incubated overnight at 4° C. with purified tubulin. After extensive washing with TBS (1×) the membranes were incubated with anti-βIII-tubulin antibodies in order to detect the amino acid sequences that interact with tubulin.
In order to identify the sequences responsible for the binding of tubulin to the neurofilaments, we use peptide-on-membrane chips, corresponding to the three neurofilament subunits (see experimental procedures). This method makes it possible to identify the binding domain involved in protein-protein interaction. […] The NFL subunit contains two tubulin binding sequences of 24 amino acids which we call NFL-TBS1 and NFL-TBS2 whereas NFM-TBS and NFH-TBS both contain 39 amino acids (FIG. 2A). […]

[2] = tested on: tubulin; assay: Spectrophotometric (turbidimetry, OD 350 nm) analysis of microtubule polymerization; type: biochemical, mice; details: for influence on polymerization of microtubules (inhibition or activation): in vitro turbidimetry
Protocol: The alteration of tubulin polymerization is measured by measuring the turbidity (optical density at 350 nm) of a tubulin suspension. A decrease in turbidity of at least 1% is a sign of inhibition of tubulin polymerization.
The polymerization of tubulin from the supernatant S3 of a microtubule preparation was investigated by turbidimetry. Briefly, the supernatant S3 (3 mg/ml) was incubated at 37° C. in the presence of 1 mM of GTP in a Helios α thermospectronic spectrophotometer to monitor the variations in optical density at 350 nm.
To test this hypothesis, we conducted turbidimetry experiments with the various peptide sequences identified by blot overlay on the peptide chip. For this purpose, the supernatant S3 (containing free tubulin), obtained from a microtubule preparation, was polymerized at 37° C. in the presence of 1 mM GTP and several concentrations (3, 10, 30, and 100 μM) of tubulin binding peptide, which were added before polymerization (t=0).
As previously for the NF-TBS peptides, studies of the influence of the peptides of vimentin, cytokeratin and GFAP identified by peptide chip on the assembly of microtubules in vitro were carried out by the same technique as described previously in the Material and Method section (Spectrophotometric analysis of microtubule polymerization) in Example 1.

[3] = tested on: T98G cells; assay: FACS (flow cytometry) cell cycle analysis; type: cell-based
Excerpt: (B-B′): Analysis by flow cytometry of control cells and cells treated with the peptides SEQ ID No. 6.
The microtubules constitute an important component of the achromatic spindle. To determine whether the presence of peptides SEQ ID No. 6 could affect cell division, the inventors usually carry out a FACS (Fluorescence Activated Cell Sorter) analysis to compare the distribution of the cycles of control cells and T98G cells treated with 10 μm of peptide SEQ ID No. 6.
In order to determine how a peptide that is an activator of microtubule polymerization affects cell division, a FACS analysis was carried out to compare the distribution of the cycles of untreated T98G cells (without peptide) or treated with 100 μm of peptide GFAP-TBS1 (SEQ ID No. 26), by the same protocol as that described in Example 2.

[4] = tested on: T98G cells; assay: Peptide uptake and in-situ microtubule network by immunofluorescence; type: cell-based; details: 6 hours
Protocol: (A-A′-A″): The T98G cells are treated with the peptides SEQ ID No. 6 (10 μM) for 6 hours and the microtubules are then detected using an anti-tubulin antibody (red) and the biotinylated peptides SEQ ID No. 6 are detected using Alexa-labeled avidin (green).
To determine whether they could also modify the in-situ assembly of microtubules, T98G cells were incubated with 10 μm of biotinylated peptides SEQ ID No. 6. After incubation for 6 hours, more than 75% of the cells contain the peptide (FIG. 8 A, A′, A″) and are characterized by an unusual spherical shape.

[5] = tested on: T98G cells; assay: MTS cell proliferation test; type: cell-based
Excerpt: The effect of exposure of peptide SEQ ID No. 6 on cell proliferation was confirmed using MTS analysis (described in Cory A. H. et al., 1991, Cancer Commun. 3, 207-212, incorporated here by reference) in which the inventors observed fewer cells in the cultures treated with peptide SEQ ID No. 6 (FIG. 8C).

“AYRRVPTETRSSFSRVSGSPSSGFRSQSWSRGSPSTVSS (listed as Mus musculus) [NFM-TBS]” was tested, and the “tubulin binding site detected on peptide chip” value (from here on “tubulin binding site detected”) [1] was “single binding sequence”.
With “FGYDPYFSTSYKRRYVETPRVHIS (listed as Mus musculus) [NFL-TBS1]” the “tubulin binding site detected” value [1] was “tubulin binding domains”.
“GGAYVTRSSAVRLRSSVPGVRLLQ (listed as Mus musculus) [Vim-TBS2]” was tested, and the “tubulin binding site detected” value [1] was “tubulin binding sites” and the “influence on polymerization of microtubules (inhibition or activation)” value (“influence … (inhibition or activation)” for short) [2] was “activate microtubule polymerization”.
For “GSEVHTKKTVMIKTIETRDGE (listed as Mus musculus) [Des-TBS3]”, the “tubulin binding site detected” value [1] was “tubulin binding sites”.
In the case of “KSVSEGHLKRNIVVKTVEMRD (listed as Mus musculus) [GFAP-TBS3]”, the “tubulin binding site detected” value [1] is reported as “tubulin binding sites” and the “influence … (inhibition or activation)” value [2] is reported as “inhibitors of microtubule polymerization”.
“MERRRITSARRSYASETVVRGLGP (listed as Mus musculus) [GFAP-TBS1]” was tested, and the “tubulin binding site detected” value [1] was “tubulin binding sites”, the “influence … (inhibition or activation)” value [2] was “activate microtubule polymerization” and the “cell cycle effect compared with control cells” value ([3]; 100 μM, 36 hours) was “strong stopping in phase G1; also recorded: inhibits cell division”.
For “MSIRVTQKSYKMSTSGPRAFSSRSFTSGPGARISSSSFSRVGSSSSSFRGSMGT (listed as Mus musculus) [Ker-TBS1]”, the “tubulin binding site detected” value [1] was “tubulin binding sites” and the “influence … (inhibition or activation)” value [2] was “activate microtubule polymerization”.
“MSQAYSSSQRVSSYRRTFGGAPGFSLG (listed as Mus musculus) [Des-TBS1]” was tested, and the “tubulin binding site detected” value [1] was “tubulin binding sites”.
In the case of “MSTRSVSSSSYRRMFGGS (listed as Mus musculus) [Vim-TBS1]”, the “tubulin binding site detected” value [1] is reported as “tubulin binding sites”.
In the case of “QIKSLNNKFASFIDKVRFLEQ (listed as Mus musculus) [Ker-TBS2]”, the “tubulin binding site detected” value [1] is reported as “tubulin binding sites”.
In the case of “RSAAGSSSGFHSWARTSVSSVSASPSRFRGAASSTDSLD (listed as Mus musculus) [NFH-TBS]”, the “tubulin binding site detected” value [1] is reported as “single binding sequence”.
In the case of “SAGGSNTFSRTTKAVVVKKIETRDGKLVSE (listed as Mus musculus) [Ker-TBS3]”, the “tubulin binding site detected” value [1] is reported as “tubulin binding sites”.
In the case of “SLPLVDTHSKRTLLIKTVETR (listed as Mus musculus) [Vim-TBS3]”, the “tubulin binding site detected” value [1] is reported as “tubulin binding sites” and the “influence … (inhibition or activation)” value [2] is reported as “inhibitors of microtubule polymerization”.
In the case of “SSPVFPRAGFGTKGSSSSMTSRVYQVSRTSGGAGGLGSLRSSRLGTTRAPSYGA (listed as Mus musculus) [Des-TBS2]”, the “tubulin binding site detected” value [1] is reported as “tubulin binding sites”.
In the case of “VRGLGPSRQLGTMPRFSLSRMTPPLPARVDFSLAGA (listed as Mus musculus) [GFAP-TBS2]”, the “tubulin binding site detected” value [1] is reported as “tubulin binding sites”.
In the case of “YSSYSAPVSSSLSVRRSYSSSSGS (listed as Mus musculus) [NFL-TBS2]”, the “tubulin binding site detected” value [1] is reported as “tubulin binding domains”, the “inhibition of tubulin polymerization” value ([2]; 100 μM peptide, supernatant S3, 37° C., 1 mM GTP) is reported as 100% and the “influence … (inhibition or activation)” value [2] is reported as “powerful effect; also recorded: inhibitors of microtubule polymerization”. The “cell cycle effect compared with control cells” value ([3]; 10 μM, 48 hours) was “strong stopping in phase G1”, the “cells in phase G1 of mitosis” value ([3]; 10 μm peptide, culture for 48 hours (untreated 39%)) was 61% and the “microtubule network in cells containing the peptide” value ([4]; 10 μM, anti-tubulin antibody, listed as SEQ ID No. 6) was “lack a typical microtubule network; also recorded: disunited network of microtubules”. The “cells containing the peptide” value ([4]; biotinylated peptide, 10 μm) was “more than 75%”, the “proliferation of T98G cells relative to untreated control” value ([5]; 10 μM for 48 hours, listed as SEQ ID No. 6) was “greatly reduced; also recorded: fewer cells” and the “degradation or elimination of peptide during culture” value ([5]; inferred from comparison with medium replaced at 24 hours) was “little (if any) degradation or elimination”. The “inhibition of the increase in number of cells” value ([5]; medium containing peptide replaced at 24 hours, data not shown) was “clearly observed”.
